Assay results published in patent US7598293B2, “Compounds and their use in medicine, process for their preparation and pharmaceutical compositions containing them” (Dr. Reddy's Laboratories, Inc., priority 2001, dated 2009).

Legend:
C57BL/KsJ-db/db mice = assay: Efficacy in genetic models: blood sugar and triglyceride lowering in db/db mice; type: in vivo, mouse; conditions: 3 mg/kg oral, results after 6 days
Source text: a) Efficacy in Genetic Models Mutation in colonies of laboratory animals and different sensitivities to dietary regimens has made the development of animal models with non-insulin dependent diabetes and hyperlipidemia associated with obesity and insulin resistance possible. Genetic models such as db/db and ob/ob (Diabetes, (1982) 31(1): 1-6) mice and zucker fa/fa rats have been developed by the various laboratories for understanding the pathophysiology of disease and testing the efficacy of new antidiabetic compounds (Diabetes, (1983) 32: 830-838; Annu. Rep. Sankyo Res. Lab. (1994). 46: 1-57). The homozygous animals, C57 BL/KsJ-db/db mice developed by Jackson Laboratory, US, are obese, hyperglycemic, hyperinsulinemic and insulin resistant (J. Clin. Invest., (1990) 85: 962-967), whereas heterozygous are lean and normoglycemic. In db/db model, mouse progressively develops insulinopenia with age, a feature commonly observed in late stages of human type II diabetes when blood sugar levels are insufficiently controlled. The state of pancreas and its course vary according to the models. Since this model resembles that of type II diabetes mellitus, the compounds of the present invention will be tested for blood sugar and triglycerides lowering activities.
Male C57BL/KsJ-db/db mice of 8 to 14 weeks age, having body weight range of 35 to 60 grams, bred at Dr. Reddy's Research Foundation (DRF) animal house, were used in the experiment. The mice are provided with standard feed (National Institute of Nutrition (NIN), Hyderabad, India) and acidified water, ad libitum. The animals having more than 350 mg/dl blood sugar will be used for testing. The number of animals in each group will be 4.
Test compounds are suspended on 0.25% carboxymethyl cellulose and administered to test group at a dose of 0.1 mg to 30 mg/kg through oral gavage daily for 6 days. The control group receives vehicle (dose 10 ml/kg). On 6th day the blood samples will be collected one hour after administration of test compounds/vehicle for assessing the biological activity.
The random blood sugar and triglyceride levels can be measured by collecting blood (100 μl) through orbital sinus, using heparinised capillary in tubes containing EDTA which was centrifuged to obtain plasma. The plasma glucose and triglyceride levels can be measured spectrometrically, by glucose oxidase and glycerol-3-PO4 oxidase/peroxidase enzyme (Dr. Reddy's Lab. Diagnostic Division Kits, Hyderabad, India) methods respectively.
The blood sugar and triglycerides lowering activities of the test compound are calculated according to the formula.
(§1) 1. Percent reduction in Blood sugar/triglycerides/total cholesterol will be calculated according to the formula:
(§2) [formula] • OC=Zero day control group value • OT=Zero day treated group value • TC=Test day control group value • TT=Test day treated group value

[1] = tested on: cholesterol fed Syrian Hamsters; assay: Body weight reducing effect in cholesterol fed hamsters; type: in vivo, hamster; conditions: 3 mg/kg oral
Procedure: d) Body weight reducing effect in cholesterol fed hamsters: Male Syrian Hamsters are procured from NIN, Hyderabad, India. Animals are housed at DRF animal house under 12 hour light and dark cycle at 25±1° C. with free access to food and water. Animals are maintained with 1% cholesterol containing standard laboratory chow (NIN) from the day of treatment.
The test compounds can be administered orally at 1 to 30 mg/kg/day dose for 15 days. Control group animals are treated with vehicle (Mill Q water, dose 10 ml/kg/day). Body weights are measured on every 3rd day.
as §1, §2

Swiss albino mice = assay: Plasma triglyceride and total cholesterol lowering activity in Swiss albino mice; type: in vivo, mouse; conditions: results after 6 days
Procedure: c) Plasma triglyceride and total cholesterol lowering activity in Swiss albino mice Male Swiss albino mice (SAM) were obtained from NIN and housed in DRF animal house. All these animals are maintained under 12 hour light and dark cycle at 25±1° C. Animals are given standard laboratory chow (NIN, Hyderabad, India) and water, ad libitum. SAM of 20-25 g body weight range and Guinea pigs of 500-700 g body weight range are used (Oliver, P., Plancke, M. O., Marzin, D., Clavey, V., Sauzieres, J and Fruchart, J. C. Effects of fenofibrate, gemfibrozil and nicotinic acid on plasma lipoprotein levels in normal and hyperlipidemic mice. Atherosclerosis. 1988. 70: 107-114).
The test compounds can be administered orally to Swiss albino mice at 0.3 to 30 mg/kg/day dose for 6 days. Control mice are treated with vehicle (0.25% Carboxymethylcellulose; dose 10 ml/kg). The test compounds are administered orally to Guinea pigs at 0.3 to 30 mg/kg/day dose for 6 days. Control animals are treated with vehicle (0.25% Carboxymethylcellulose; dose 5 ml/kg). The blood samples can bc collected in fed state 1 hour after drug administration on 0 and 6 day of treatment. The blood can be collected from the retro-orbital sinus through heparinised capillary in EDTA containing tubes. After centrifugation, plasma sample was separated for triglyceride (Wieland, O. Methods of Enzymatic analysis. Bergermeyer, H. O., Ed., 1963. 211-214; Trinder, P. Ann. Clin. Biochem. 1969. 6: 24-27). Measurement of plasma triglyceride is done using commercial kits (Dr. Reddy's Diagnostic Division, Hyderabad, India).
as §1, §2

In the case of `CCOC(Cc1ccc(NC(=O)OCCCc2ccc(OS(C)(=O)=O)cc2)cc1)C(=O)O` (centres unmarked) [Example 16, 2-Ethoxy-3-[4-{3-(4-methanesulfonyloxyphenyl)propyloxycarbonylamino}phenyl]propionic acid], the “Reduction in Blood Glucose Level (%)” value (C57BL/KsJ-db/db mice) is reported as 15%, the “Triglyceride Lowering (%)” value (C57BL/KsJ-db/db mice) is reported as 39% and the “Reduction in Body weight (%)” value [1] is reported as 19%. For the same compound, the “Reduction in Total Cholesterol (%)” value [1] was 63% and the “Reduction in Triglyceride (%)” value [1] was 77%.
In the case of “2-Ethoxy-3-[4-(4-methanesulfonyloxybenzylamino)phenyl]propionic acid arginine salt [Example 38]”, the “Triglyceride Lowering (%)” value (Swiss albino mice; 1 mg/kg oral) is reported as 41%.
With `CCOC(Cc1ccc(NCCCc2ccc(N(C(=O)OC(C)(C)C)S(C)(=O)=O)cc2)cc1)C(=O)O` (centres unmarked) [Example 30] the “Triglyceride Lowering (%)” value (Swiss albino mice; 3 mg/kg oral) was 41%.
For `CCOC(Cc1ccc(NCCCc2ccc(OS(=O)(=O)c3ccc(C)cc3)cc2)cc1)C(=O)O` (centres unmarked) [Example 19, 2-ethoxy-3-[4-{3-(4-(toluene-4-sulfonyloxy)phenyl)propylamino}phenyl]propionate], the “Triglyceride Lowering (%)” value (Swiss albino mice; 1 mg/kg oral) was 39%.
